Key:
[1] = system: S. aureus ATCC 29213 (wild type); test: PNA-FISH antibiotic susceptibility test, wild type S. aureus; format: cell-based; settings: OX 2 μg/mL and higher (2, 4, 8 μg), 6 hr incubation in Phoenix AST broth, 10^5 CFU/ml, PNA-FISH fluorescence imaging
Experimental: (§1) S. aureus ATCC 29213 and S. aureus POS 3663 cultures with a concentration of 10^5CFU/ml were divided into six 400 μl subsamples and incubated with or without OX antibiotic for 0 or 6 hours in Phoenix AST broth as indicated in the following table.
(§2) Each subsample was placed into separate 1.5 mL microcentrifuge tubes following incubation. The tubes were centrifuged at 5000 rpm for 3 minutes and the supernatants were discarded. The bacteria were resuspended in […] of 80% ethanol and incubated for 5 minutes at room temperature and then centrifuged at 5000 rpm for 3 minutes. The supernatants were discarded and the bacteria were resuspended in one drop (approximately 25 μL) of the S. aureus-specific PNA-probe solution from the PNA FISH Kit and incubated for 1.5 hours at 55° C. After hybridization, 500 μL of the washing solution from the PNA FISH Kit was added and the tubes were incubated at 55° C. for 30 minutes. The tubes were centrifuged 10,000 rpm for 3 minutes and the supernatants were discarded. The bacterial pellets were resuspended in 150 μL PBS, and 40 μL of each subsample was transferred onto a 0.2 μm pore-size polycarbonate membrane using a flow-through device. The membrane was then transferred to a glass slide and covered with a cover slip. The membrane was then imaged using a fluorescence microscope.

[2] = system: S. aureus POS 3663 (MRSA); test: PNA-FISH antibiotic susceptibility test, MRSA; format: cell-based; settings: OX at concentrations as high as 8 μg/mL, 6 hr incubation in Phoenix AST broth, 10^5 CFU/ml, PNA-FISH fluorescence imaging
Experimental: as §1, §2

Cc1onc(-c2ccccc2)c1C(=O)N[C@@H]1C(=O)N2[C@@H]1SC(C)(C)[C@@H]2C(=O)O [oxacillin]
effect of oxacillin (OX) on the growth of wild type S. aureus ATCC 29213 [1]: killed the bacteria
effect of oxacillin (OX) on the growth of wild type S. aureus ATCC 29213 ([1]; listed as OX): most of the wild type S. aureus were killed
effect of oxacillin (OX) on the growth of resistant S. aureus POS 3663 [2]: had no effect on the growth
effect of oxacillin (OX) on the growth of resistant S. aureus POS 3663 ([2]; listed as OX): continues to grow

Reference: US20110269130A1, “Antibiotice Susceptibility Profiling Methods” (priority 2008, published 2011)
